According to patent publication US20210177542A1, “POWDER FOR CLEANING AN INTERNAL BODY PART AND/OR AN IMPLANT, METHOD FOR PRODUCING SAID TYPE OF POWDER AND SUITABLE USES” (FERTON HOLDING S.A., priority 2017, published 2021):
Values after ≈ are worked out from the molar mass of the structure shown.

How the values were obtained:
Assay type in all cases: physicochemical
[1] = Solubility in water at 20° C.; settings: for Solubility in water: Table 2; for solubility: water, Table 1
Source text: In this disclosure, substances are classified as water-soluble if more than 1 g of powder can be added per liter. […] The preferred powders have the following properties: […]

Density of the powder = settings: Table 1
Source text: In another embodiment of the present disclosure, it is provided for the powder to have a density between 0.2 and 3 g/cm^3, preferably between 0.2 and 2.4 g/ cm^3 and particularly preferably between 0.2 and 1.6 g/ cm^3.

[2] = Hygroscopicity (moisture absorption) of the powder types; settings: sensitivity to moisture during sterilizing
Source text: The powders of present disclosure are hygroscopic. According to a preferred embodiment, amorphous silica (silicon dioxide) is therefore added to the powders, especially in a volume ratio of 0.1 to 2.5%. This can reduce or even completely prevent absorption of moisture by the powder during sterilizing. The addition of amorphous silica results in hydrophobic coating for the powder particles, thus counteracting the moisture absorption of the powder particles during the sterilizing process. In less hygroscopic powders, addition of amorphous silica may be reduced or even completely omitted. The following powder types may be classified as hygroscopic: sodium hydrogen carbonate, glycine and erythritol.

| Solubility in water [1] [g/1] | solubility [1] [mg/mL] | Density (Density of the powder) [g/mL] | Classification as hygroscopic [2] | SMILES |
| --- | --- | --- | --- | --- |
| 540 | 540 (≈ 4420 mM) | 1.45 | hygroscopic | OC[C@@H](O)[C@@H](O)CO [Erythritol, erythritol] |
|  |  | 1.61 | hygroscopic | NCC(=O)O [Glycine, glycine] |
|  |  | 2.54 | hygroscopic | O=C([O-])O.[Na+] [Sodium bicarbonate, sodium bicarbonate] |
| 690 | 690 (≈ 2020 mM) | 1.80 | slightly less sensitive | OC[C@H]1O[C@H](O[C@H]2O[C@H](CO)[C@@H](O)[C@H](O)[C@H]2O)[C@H](O)[C@@H](O)[C@@H]1O [Trehalose, trehalose] |
